Source: patent publication US20210267944A1 (BioXcel Therapeutics, Inc., priority 2018, published 2021)
“And” between values parts separate entries of the source, which are not always exact repeats. Equal values may be shown once. Where a name gives a salt, the structure may show the parent alone. Read-outs that look alike come from different tables or passages of the source.

What was measured:
[1] = system: agitated subjects with senile dementia of Alzheimer's type; conditions: for RASS score: per subject
Experimental: Clinical evaluation was performed as follows. Patients were screened up to 4 weeks prior to randomization. After obtaining the written informed consent from subjects, subjects were allowed to participate in the study related screening activities. Screening activities included clinical laboratory tests, physical examination, ECG, etc. After completion of all screening related activities, the eligible subjects [male and female subjects 55 to 75 years of age; known cases of mild probable Alzheimer's disease (SDAT) in accordance with NINCDS/ADRDA criteria for diagnosis of Alzheimer's disease with a Mini-Mental State Score of between 20 to 24; RASS score of +1 or +2 on the Day −1 and prior to drug administration on Day 1] were randomized in the study (treatment allocation 5:2). Subjects were housed in the clinic from Day −1 (preferably in the afternoon or evening) to end of study. Additional housing was allowed performed based on the investigator's discretion.
Study drug IV infusion was to be stopped at any time if any of the following occurred: • There was more than 20 mm Hg decrease in systolic or diastolic blood pressure. • There was an isolated drop in Systolic BP<100 mm of Hg. • There was an isolated drop Diastolic BP<60 mm of Hg. • There was a decrease in heart rate of 20 beats per minute or a drop below 50 beats per minute. • Attainment of a RASS of −1 at the end of each 30 minutes infusion period.
All raters were trained in the use of the RASS scale.
Once the participant was drowsy but able to respond to verbal stimulation, the infusion was stopped, and time was recorded.

clinical = conditions: human, in vivo; for concentration at 15 min / concentration at 30 min / concentration at 90 min / concentration at 45 min / concentration at 60 min / concentration at 75 min: Plasma level concentration

For `Cc1cccc([C@H](C)c2cnc[nH]2)c1C` [dexmedetomidine hydrochloride], the “Efficacy (Primary/secondary end points): subjects reaching RASS-1” value ([1]; Alzheimer's Study) was 7/10 RASS-1, the “Range of efficacious dose of IV dexmedetomidine hydrochloride” value ([1]; Alzheimer's Study, continuous infusion) was 0.2 to 0.5 µg/kg/h and the “time after infusion discontinuation at which subjects became alert and remained calm” value ([1]; SDAT) was “around 30 minutes”. For the same compound, the “IV infusion rate, range” value ([1]; SDAT patients) was 0.2 to 0.5 µg/kg/h, the RASS score ([1]; SDAT patients, 00:00 Hr, listed as Treatment) was 2 (5×) and 1 (5×) and the RASS score ([1]; SDAT patients, 02:30 Hr) was 1. The “Total dose, range” value ([1]; SDAT, extent of exposure) was 0.15 to 0.75 µg/kg, the “Time period for which a calming effect persisted after discontinuation of study drug” value ([1]; SDAT, n=7) was 5 min and the “Time period for which a calming effect persisted after discontinuation of study drug, Max” value ([1]; SDAT, n=7) was 45 min. For the same compound, the “Time period for which a calming effect persisted after discontinuation of study drug, Mean ± SD” value ([1]; SDAT, n=7) was 28.6 ± 15.74 min, the “Time period for which a calming effect persisted after discontinuation of study drug, Median” value ([1]; SDAT, n=7) was 30 min and the “optimal dose at which a RASS score of −1 was achieved, Max” value ([1]; SDAT, n=7) was 0.5 µg/kg/h. The “optimal dose at which a RASS score of −1 was achieved, Mean ± Sd (mean infusion rate)” value (“optimal dose … Mean ± Sd (mean infusion rate)” below) ([1]; SDAT, n=7) was 0.34 µg/kg/h, the “optimal dose at which a RASS score of −1 was achieved, Median” value ([1]; SDAT, n=7) was 0.30 µg/kg/h and the “optimal dose at which a RASS score of −1 was achieved, Min” value ([1]; SDAT, n=7) was 0.2 µg/kg/h. For the same compound, the “optimal dose at which a RASS score of −1 was achieved, Mode” value ([1]; SDAT, n=7) was 0.30 µg/kg/h, the “optimal dose … Mean ± Sd (mean infusion rate)” value ([1]; SDAT, n=7, listed as Test) was 0.34 ± 0.098 µg/kg/h and the “optimal dose … Mean ± Sd (mean infusion rate)” value ([1]; SDAT, n=7, listed as dexmedetomidine) was 0.34 µg/kg/h. The “subjects who achieved a RASS score of −1” value ([1]; SDAT, out of 10 subjects) was 7, the Cmax (clinical) was 0.0225 to 0.406 ng/mL and the concentration at 15 min (clinical; Patient 1, Treatment, 15 min of infusion) was 0.0225 ng/mL. The concentration at 30 min (clinical; Patient 1, Treatment) was 0.0147 ng/mL, the concentration at 90 min (clinical; Patient 4, Treatment) was 0.0443 ng/mL and the concentration at 15 min (clinical; Patient 11, Treatment, 15 min) was 0.041 ng/mL. For the same compound, the concentration at 30 min (clinical; Patient 11, Treatment) was 0.0629 ng/mL, the concentration at 45 min (clinical; Patient 11, Treatment) was 0.124 ng/mL and the concentration at 60 min (clinical; Patient 11, Treatment) was 0.15 ng/mL. The concentration at 30 min (clinical; Patient 12, Treatment) was 0.0449 ng/mL, the concentration at 45 min (clinical; Patient 12, Treatment) was 0.0505 ng/mL and the concentration at 60 min (clinical; Patient 12, Treatment) was 0.109 ng/mL. It also gave a concentration at 75 min (clinical; Patient 12, Treatment) of 0.159 ng/mL, a concentration at 90 min (clinical; Patient 12, Treatment) of 0.238 ng/mL and a concentration at 30 min (clinical; Patient 14, Treatment) of 0.0527 ng/mL. For the same compound, the concentration at 45 min (clinical; Patient 14, Treatment) was 0.0465 ng/mL, the concentration at 60 min (clinical; Patient 14, Treatment) was 0.406 ng/mL and the concentration at 15 min (clinical; Patient 16, Treatment, 15 min) was 0.00256 ng/mL. It also gave a concentration at 30 min (clinical; Patient 16, Treatment) of 0.0156 ng/mL, a concentration at 45 min (clinical; Patient 16, Treatment) of 0.0412 ng/mL and a concentration at 60 min (clinical; Patient 16, Treatment) of 0.0679 ng/mL. The concentration at 75 min (clinical; Patient 16, Treatment) was 0.0723 ng/mL, the concentration at 15 min (clinical; Patient 17, Treatment, 15 min) was 0.0159 ng/mL and the concentration at 45 min (clinical; Patient 17, Treatment) was 0.0399 ng/mL. For the same compound, the concentration at 15 min (clinical; Patient 18, Treatment, 15 min) was 0.0484 ng/mL and the concentration at 30 min (clinical; Patient 18, Treatment) was 0.0545 ng/mL.
